Read-outs that look alike come from different tables or passages of the source.
How the values were obtained:
[1] = tested on: HepG2-A16-CD81EGFP cells; experiment: cells; settings: Homo sapiens, HepG2, read-out: % inhibition
[2] = tested on: Plasmodium berghei (Pb-Luc) exoerythrocytic-stage parasites; experiment: microbe, parasite or virus in culture; settings: for inhibition at 10 µM: read-out: PbLuc max inhibition (%) @ 10 uM
[3] = tested on: HepG2-A16-CD81EGFP cells; experiment: cells; settings: Homo sapiens, HepG2, read-out: % inhibition; remark: listed apart in the source
[4] = tested on: HepG2-A16-CD81EGFP cells; experiment: cells; settings: Homo sapiens; for IC50: HepG2, read-out: Tox IC50; for inhibition at 10 µM: HepG2, read-out: Tox max inhibition (%) @ 10 uM; for inhibition at 50 µM: HepG2, read-out: Tox max inhibition (%) @ 50 uM
[5] = target: QuantiLum Recombinant Luciferase (Photinus pyralis, UniProt P08659); experiment: Bioluminescence quantification of compound luciferase inhibition; settings: for Emax: read-out: LucInhib max inhibition
[6] = read-out: Inhibition% @ 50 uM rep1
[7] = read-out: Inhibition% @ 50 uM rep2
[8] = HepG2, read-out: HepG2 Tox% @ 50 uM rep1
[9] = HepG2, read-out: HepG2 Tox% @ 50 uM rep2
[10] = read-out: PbLuc IC50, dose response, 1/3 dilutions, max conc. 10 or 50 uM, unit inferred
[11] = read-out: PbLuc IC50, dose response, unit inferred
[12] = read-out: PbLuc max inhibition (%) @ 50 uM

Sequence of QuantiLum Recombinant Luciferase (P08659 whole entry): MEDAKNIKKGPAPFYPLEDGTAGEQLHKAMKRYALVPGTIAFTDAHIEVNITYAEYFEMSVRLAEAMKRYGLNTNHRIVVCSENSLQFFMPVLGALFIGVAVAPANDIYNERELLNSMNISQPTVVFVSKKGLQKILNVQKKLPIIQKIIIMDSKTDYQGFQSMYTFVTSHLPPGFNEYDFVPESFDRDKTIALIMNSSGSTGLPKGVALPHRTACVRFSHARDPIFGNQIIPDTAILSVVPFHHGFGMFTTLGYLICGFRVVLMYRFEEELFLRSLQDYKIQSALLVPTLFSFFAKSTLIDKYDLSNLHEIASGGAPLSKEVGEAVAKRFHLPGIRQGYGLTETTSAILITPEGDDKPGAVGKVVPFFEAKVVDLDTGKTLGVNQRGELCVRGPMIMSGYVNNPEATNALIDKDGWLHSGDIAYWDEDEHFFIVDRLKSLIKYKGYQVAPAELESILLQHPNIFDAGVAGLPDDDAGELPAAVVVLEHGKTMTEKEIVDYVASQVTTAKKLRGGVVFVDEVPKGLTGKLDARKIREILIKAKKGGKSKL

| Compound | inhibition at 50 µM [1] | inhibition at 50 µM [2, 6] | inhibition at 50 µM [2, 7] | inhibition at 50 µM [3] | cytotoxicity at 50 µM [4, 8] | cytotoxicity at 50 µM [4, 9] | IC50 [4] | inhibition at 10 µM [4] | IC50 [2, 10] | inhibition at 10 µM [2] | IC50 [5] | Emax [5] | inhibition at 50 µM [4] | IC50 [2, 11] | inhibition at 50 µM [2, 12] |
| --- | --- | --- | --- | --- | --- | --- | --- | --- | --- | --- | --- | --- | --- | --- | --- |
| CC1CN(C(=O)c2sc3ccccc3c2Cl)CC(C)O1 (stereo not drawn) [MMV020492] | 25% | 44% | 44% | 23.2% |  |  |  |  |  |  |  |  |  |  |  |
| CCOc1ccc(C2N(C)c3ccccc3N2C)cc1 [MMV075490] | 88% | 103% | 102% | 89.5% |  |  |  |  |  |  |  |  |  |  |  |
| CCOc1cc(Cl)c(C(C)NC(=O)c2cccc(OC)c2)cc1OCC (stereo not drawn) [MMV665803] | 86.5% | 104% | 106% | 97.7% |  |  |  |  |  |  |  |  |  |  |  |
| COc1ccc(-n2ccnc2SCC(=O)Nc2cc(C)ccc2C)c(OC)c1 [MMV019258] | 63.1% | 102% | 102% | 80.6% |  |  |  |  |  |  |  |  |  |  |  |
| CCCCNCC(O)(c1ccc(Cl)cc1)c1ccc(Cl)cc1 [MMV665929] | 95.9% | 104% | 105% | 99.2% |  |  |  |  |  |  |  |  |  |  |  |
| CCN(CC)CCCNc1nc(-c2ccc(Cl)cc2)nc2ccccc12 [MMV665961] | 95% | 101% | 103% | 87.3% |  |  |  |  |  |  |  |  |  |  |  |
| COc1ccc(C=C2SC(=N)N(c3ccccc3OC)C2=O)cc1 [MMV666691] | 94.9% | 103% | 104% | 98.5% |  |  |  |  |  |  |  |  |  |  |  |
| CCOC(=O)c1cnc2c(C)cc(C)cc2c1Nc1ccc(OC)c(OC)c1 [MMV008294] | 1.7% | 0.759% | 0% | -1.86% |  |  |  |  |  |  |  |  |  |  |  |
| CCOC(=O)c1c(C)n(-c2ccc(Cl)cc2)c2ccc(OC(=O)C=Cc3ccccc3)cc12 [MMV666600] | 70.5% | 104% | 104% | 68.1% |  |  |  |  |  |  |  |  |  |  |  |
| CSc1ccccc1C(=O)Nc1nc(-c2ccccn2)cs1 [MMV001246] | 82.2% | 101% | 104% | 86.4% |  |  |  |  |  |  |  |  |  |  |  |
| CCOc1cccc(C(=O)Nc2ccc(-c3nc4ccccc4[nH]3)cc2)c1 [MMV019202] | 76.2% | 101% | 100% | 88.4% |  |  |  |  |  |  |  |  |  |  |  |
| O=C(Nc1ccc(Br)cc1)Nc1cccc(Cl)c1 [MMV001318] | 66.2% | 103% | 102% | 65.5% |  |  |  |  |  |  |  |  |  |  |  |
| O=C(CSc1ccc2nnc(-c3cccc(F)c3)n2n1)Nc1ccc2c(c1)OCO2 [MMV665918] | -2.83% | -43% | -48% | 0.859% |  |  |  |  |  |  |  |  |  |  |  |
| CCc1c(C)c(=N)c2ccccc2n1C [MMV006278] | 71% | 100% | 101% | 77.8% |  |  |  |  |  |  |  |  |  |  |  |
| CCOc1cc2c(cc1OCC)C(c1cc(C)c(O)c(C)c1)NCC2 (stereo not drawn) [MMV000483] | 23% | 69% | 61% | 55.7% |  |  |  |  |  |  |  |  |  |  |  |
| CCCCCCOC(=O)C1=C(C)NC(=O)NC1c1ccccc1F (stereo not drawn) [MMV007686] | 19.1% | 69% | 63% | 4.22% |  |  |  |  |  |  |  |  |  |  |  |
| CNCCCNc1ccnc2cc(Cl)ccc12 [MMV020500] | 101% | 104% | 105% | 101% |  |  |  |  |  |  |  |  |  |  |  |
| COc1ccc(C2N(C)c3ccccc3N2C)cc1 [MMV666075] | 76.8% | 101% | 98% | 84.3% |  |  |  |  |  |  |  |  |  |  |  |
| CCN(Cc1ccccc1)C1CCN(Cc2cc(Br)ccc2O)CC1 [MMV019127] | 82.2% | 102% | 104% | 86% |  |  |  |  |  |  |  |  |  |  |  |

| Compound | inhibition at 50 µM [1] | inhibition at 50 µM [2, 6] | inhibition at 50 µM [2, 7] | inhibition at 50 µM [3] | cytotoxicity at 50 µM [4, 8] | cytotoxicity at 50 µM [4, 9] | IC50 [4] | inhibition at 10 µM [4] | IC50 [2, 10] | inhibition at 10 µM [2] | IC50 [5] | Emax [5] | inhibition at 50 µM [4] | IC50 [2, 11] | inhibition at 50 µM [2, 12] |
| --- | --- | --- | --- | --- | --- | --- | --- | --- | --- | --- | --- | --- | --- | --- | --- |
| O=C(Nc1ccc(N2CCCCC2)c(Cl)c1)c1ccc(Br)o1 [MMV019700] | 97.5% | 104% | 106% | 99% |  |  |  |  |  |  |  |  |  |  |  |
| Oc1ccccc1CN1CCC2(CCCN(Cc3ccccc3F)C2)C1 (stereo not drawn) [MMV666116] | 73.5% | 98% | 100% | 85.7% |  |  |  |  |  |  |  |  |  |  |  |
| COc1ccccc1CNC(=O)C1c2ccccc2C(=O)N(CC(C)C)C1c1cccs1 (stereo not drawn) [MMV000648] | 83.2% | 103% | 105% | 91.6% |  |  |  |  |  |  |  |  |  |  |  |
| OC(CNC1CCCC1)Cn1c2ccccc2c2ccccc21 (stereo not drawn) [MMV000848] | 96.9% | 103% | 104% | 99.2% |  |  |  |  |  |  |  |  |  |  |  |
| CCCCc1ccc(NS(=O)(=O)c2cc3c4c(c2)CCN4C(=O)CC3)cc1 [MMV001255] | 67.8% | 98% | 92% | 77.1% |  |  |  |  |  |  |  |  |  |  |  |
| COc1cccc(NC(=O)Cn2c(C)c(C#N)c3ccccc32)c1 [MMV665826] | 49.1% | 102% | 101% | 77.8% |  |  |  |  |  |  |  |  |  |  |  |
| Fc1ccc2[nH]c3c(NCCCN4CCOCC4)ncnc3c2c1 [MMV019871] | 58.8% | 103% | 103% | 74.2% |  |  |  |  |  |  |  |  |  |  |  |
| Cc1cc(Nc2ccc(Cl)cc2)n2nc(C(F)(F)F)nc2n1 [MMV011256] | 37.6% | 102% | 104% | 37.8% |  |  |  |  |  |  |  |  |  |  |  |
| CCOC(=O)c1cnc2ccc(CC)cc2c1O [MMV007116] |  | 102% | 101% |  | -3.48% | -3.29% | > 10 µM | 10% | 0.0491 µM | 110% | > 20 µM | 17% |  |  |  |
| O=C(NC1CCN(Cc2ccccc2)CC1)c1cc(-c2cccnc2)nc2ccc(Cl)cc12 [MMV020490] |  | 95% | 91% |  | 0.383% | -0.245% | > 50 µM |  |  |  | > 50 µM | 23% | 12% | > 50 µM | 71% |
| COc1ccc2c(c1OC)C(=O)N1c3ccccc3N=C(c3ccc(C)cc3)CC21 (stereo not drawn) [MMV000917] |  | 96% | 95% |  | 15% |  | > 50 µM |  |  |  | > 50 µM | 23% | 7% | > 50 µM | 96% |
| Cc1c(C)n(Cc2ccc(F)cc2)c2ccc(C(=O)NCc3ccco3)cc12 [MMV008149] |  | 102% | 102% |  | 9% | 19% | > 50 µM |  | 0.765 µM |  | > 50 µM | 10% | 32% |  | 107% |
| Cc1sc(NC(=O)c2ccccc2)c(C(c2cccs2)N2CCN(c3ccccc3)CC2)c1C (stereo not drawn) [MMV396652] |  | 99% | 99% |  | 14% |  | > 50 µM |  | 4.07 µM |  | > 50 µM | 33% | 28% |  | 97% |
| COc1ccc(C)c2sc(N(Cc3cccnc3)C(=O)c3ccc(C#N)cc3)nc12 [MMV001241] |  | 100% | 102% |  | 18% |  | > 50 µM |  |  |  | > 50 µM | 7% | 22% | 21.5 µM | 101% |
| COc1cccc(C(=O)Nc2ccc(-c3nc4ccccc4[nH]3)cc2)c1 [MMV019762] |  | -94% | -91% |  | -16% |  | > 10 µM | 9% |  | 31% | > 20 µM | -3% |  | > 10 µM |  |
| C=CCc1c(C)nc2ccccc2c1O [MMV006913] |  | 100% | 97% |  | -8% | -5% | > 10 µM | 15% | 0.292 µM | 108% | > 20 µM | 38% |  |  |  |
| CC(C)(C)c1ccc(C(=O)Nc2c3c(nn2-c2cccc(Cl)c2)CSC3)cc1 [MMV666123] |  | 101% | 102% |  | 18% |  | > 50 µM |  | 10.1 µM |  | > 50 µM | 23% | 10% |  | 103% |
| Cc1ccc(Cn2c(N3CCC(C(=O)NCc4cccs4)CC3)nc3ccccc32)cc1 [MMV007564] |  | 104% | 105% |  | 97% | 99% | > 50 µM |  | 2.09 µM |  | > 50 µM | 27% | 69% |  | 106% |
| COCCn1c(C)nc2ccccc2c1=O [MMV665904] |  | 100% | 102% |  | 1.26% | -3% | > 10 µM | 22% | 1.99 µM | 90% | > 20 µM | 13% |  |  |  |
